We go through three compounds from US7939689B2, “Short-acting sedative hypnotic agents for anesthesia and sedation” (Theravance, Inc., priority 2002, dated 2011).

One experiment has as its system rats. Put plainly: Test A: administration by infusion (rats), recovery after termination of infusion. In kind it is in vivo, rat (Sprague-Dawley). As to the method: (§1) Test compounds, e.g., representative compounds of the invention as well as the comparison compound, propanidid, were formulated in (1) 10% cremophor EL/90% D5W (5% dextrose in distilled water) (2) 10% Liposyn® III (Intravenous Fat Emulsion, containing (per 100 mL) 10 g soybean oil, 1.2 g egg phosphatides and […]), available from Abbott Laboratories, North Chicago, Ill.; and (3) injections (10) or (11) (as described in Example 16) with Miglyol® 810 (caprylic/capric glyceride). Typically, formulation (1) above was used for bolus dosing and formulations (2) or (3) for infusion dosing. Compounds of the invention and propanidid were synthesized as described in Examples 1-15 below. Propofol formulated in soybean oil, sold as Diprivan® injectable emulsion was obtained from AstraZeneca (Wilmington, Del.).
Administration by Infusion (Rats)
Rats (adult Sprague-Dawley) were placed in a perspex restrainer and anesthesia induced by bolus injection via the tail vein (0.15-1 mL/kg over approximately 3 seconds at a dose, estimated from the earlier bolus experiments, to produce anesthesia of approximately 2 minutes duration). Immediately after bolus administration, an infusion (with a duration of typically 20, 180 or 300 minutes), via the tail vein, was commenced (0.075-0.5 mL/kg/min at a half of the bolus dose/min). In some experiments, the initial infusion rate was maintained throughout, while in others, the rate was modified as necessary to maintain a consistent depth of anesthesia (as defined by moderate paw withdrawal in response to noxious pinch). Following completion of the infusion, duration of anesthesia (i.e. duration of loss of righting reflex) and behavioral recovery (i.e. duration of ataxia, sedation or lethargy following return of the righting reflex) was recorded.
Administration by infusion (rats): Recovery times following termination of administration by infusion in rats were determined for compound 1 and for the comparison compounds propofol and propanidid. The duration of the loss of righting reflex (in minutes) following termination of infusion is given as a function of duration of infusion in Table 2 below.

For a further experiment, the system named is guinea pigs. Put plainly: Test A: bolus administration (guinea pigs), loss of righting reflex. As to conditions: bolus via ear vein, calculated from dose response. Format: in vivo, guinea pig. As to the method: as §1
Bolus Administration (Guinea Pigs)
Adult male guinea pigs were dosed by bolus administration (0.1-0.25 mL volume) via an ear vein. Duration of loss of righting reflex was measured as described above for rats.
Bolus administration (guinea pigs): The potency of compound 1 was also tested in guinea pigs by the analogous procedure. The dose of compound 1 required to produce 2 minutes of loss of righting reflex in guinea pigs was calculated to be 8 mg/kg, as compared with a dose of 13 mg/kg for propanidid.

[1] abbreviates: 20 minute Infusion via tail vein.

Take `CCCOC(=O)Cc1ccc(OCC(=O)N(CC)CC)c(OC)c1` [Propanidid, [4-[(N,N-diethylcarbamoyl)methoxy]-3-methoxyphenyl]acetic acid propyl ester]: the “Duration of Loss of Righting Reflex Following Termination of Infusion” value (“Duration of Loss … of Infusion” for short) came out at 1.6 ± 0.2 min in the experiment on rats (setting [1]) and 1.4 ± 0.1 min with rats (3 hour Infusion via tail vein). The “dose required to produce 2 minutes of loss of righting reflex” value with guinea pigs is 13 mg/kg.
Take `CC(C)c1cccc(C(C)C)c1O` [Propofol, 2,6-diisopropylphenol]: the figures for the “Duration of Loss … of Infusion” value in the experiment with rats (setting [1]), in the experiment on rats (3 hour Infusion via tail vein) and in the experiment with rats (5 hour Infusion via tail vein) were 30.0 ± 2.9 min, 47.8 ± 5.3 min and 59.0 ± 1.4 min, respectively.
On to `CCCOC(=O)Cc1ccc(OCC(=O)N(CC)CC)c(OCC)c1` [Compound 1, [4-[(N,N-Diethylcarbamoyl)methoxy]-3-ethoxyphenyl]acetic acid propyl ester], for which the “Duration of Loss … of Infusion” value was 1.4 ± 0.1 min in the experiment with rats (setting [1]), 1.7 ± 0.1 min in the experiment on rats (3 hour Infusion via tail vein) and 2.6 ± 1.0 min with rats (5 hour Infusion via tail vein). Moreover, the “dose required to produce 2 minutes of loss of righting reflex” value in the experiment on guinea pigs is reported as 8 mg/kg.
